Reference: the supplement of paper PMC8633005

Tests used:
Assay in all cases: drug sensitivity score (DSS) (DSS (unitless, 0-50 scale)); higher = more sensitive (stronger viability inhibition); extreme values may be limits of the assay
Conditions in all cases: 72 h; culture: 2D
[1] = test system: WM852
In short: (§1)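 Patient-derived melanoma cultures (1000–1500 cells per well) and melanoma cell lines were grown in 2D in 384-well plates holding a 527-compound oncology library. Each compound was dissolved in DMSO or water and tested at five concentrations spanning a 10,000-fold range. After 72 h at 37 °C, viability was read by CellTiter-Glo luminescence. A drug sensitivity score, a modified area-under-curve measure, was derived from dose-response curves fitted in the in-house Breeze software.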

[2] = test system: SK-MEL-2
In short: as §1

[3] = test system: FM-MEL-6
In short: as §1

[4] = test system: WM165
In short: as §1

[5] = test system: SK-MEL-28
In short: as §1

[6] = test system: FM-MEL-2
In short: as §1

[7] = test system: FM-MEL-3
In short: as §1

[8] = test system: Bowes
In short: as §1

Structure (SMILES) | drug sensitivity score [1] | drug sensitivity score [2] | drug sensitivity score [3] | drug sensitivity score [4] | drug sensitivity score [5] | drug sensitivity score [6] | drug sensitivity score [7] | drug sensitivity score [8]
COc1cc(C)c(/C=C/C(C)=C/C=C/C(C)=C/C(=O)O)c(C)c1C [Acitretin] | 0 | 0 | 1.6 | 0 | 0 | 0 | 1.3 | 2.6
CN(C)C/C=C/C(=O)Nc1cc2c(Nc3ccc(F)c(Cl)c3)ncnc2cc1O[C@H]1CCOC1 [Afatinib] | 0 | 0 | 0.3 | 0 | 0 | 0 | 0.5 | 2.2
Cn1ncc(Cl)c1-c1cc(C(=O)N[C@H](CN)Cc2cccc(F)c2)sc1Cl [Afuresertib] | 0.5 | 0 | 2.3 | 1.5 | 1 | 1.5 | 1.9 | 0
COc1cccc2c1C(=O)c1c(O)c3c(c(O)c1C2=O)C[C@@](O)(/C(CO)=N/NC(=O)CCCCCN1C(=O)C=CC1=O)C[C@@H]3O[C@H]1C[C@H](N)[C@H](O)[C@H](C)O1 [Aldoxorubicin] | 5.8 | 6.3 | 8.6 | 15.2 | 8.8 | 6.4 | 8 | 4.3
CCc1cc2c(cc1N1CCC(N3CCOCC3)CC1)C(C)(C)c1[nH]c3cc(C#N)ccc3c1C2=O [Alectinib] | 0 | 0 | 0 | 0.2 | 0 | 0.6 | 0 | 0
COc1cc(Nc2ncc3c(n2)-c2ccc(Cl)cc2C(c2c(F)cccc2OC)=NC3)ccc1C(=O)O [Alisertib] | 0 | 0 | 0.5 | 13.7 | 3.2 | 0.5 | 3.1 | 18.5
Oc1ncnc2[nH]ncc12 [Allopurinol] | 0 | 0 | 0 | 0 | 0 | 0 | 0 | 0
Cc1nc(NC(=O)N2CCC[C@H]2C(N)=O)sc1-c1ccnc(C(C)(C)C(F)(F)F)c1 [Alpelisib] | 1.9 | 0 | 0.7 | 0.6 | 1.2 | 2.1 | 2.7 | 0.3
O=C(Nc1cc(Oc2cc(F)c(NC(=O)C3(C(=O)Nc4ccc(F)cc4)CC3)cc2F)ccn1)C1CC1 [Altiratinib] | 6.1 | 0 | 7.7 | 5 | 0 | 6.2 | 9 | 6.4
CN1CC[C@H](c2c(O)cc(O)c3c(=O)cc(-c4ccccc4Cl)oc23)[C@H](O)C1 [Alvocidib] | 16.4 | 16.9 | 17.7 | 20.4 | 18.1 | 12.6 | 18.6 | 19.9
CCN(CC)CCNC(=O)c1c(C)[nH]c(/C=C2\C(=O)Nc3ccc(-c4csc(-c5ccccc5)n4)cc32)c1C [Amcasertib] | 8.2 | 0 | 8.8 | 4.5 | 1.9 | 7.4 | 4.1 | 0.2
CCC1(c2ccc(N)cc2)CCC(=O)NC1=O (stereo not given) [Aminoglutethimide] | 0 | 0 | 0 | 0 | 0 | 0 | 0 | 0
COc1cc(NS(C)(=O)=O)ccc1Nc1c2ccccc2nc2ccccc12 [Amsacrine] | 0 | 2.8 | 5.5 | 16.9 | 6.4 | 4.9 | 5.8 | 0.5
S=C(NCc1ccc2c(c1)OCO2)N1CCN(c2ncnc3c2oc2ccccc23)CC1 [Amuvatinib] | 6.6 | 0 | 0 | 1.2 | 0 | 0 | 4.9 | 3.9
O=C1CN2Cc3c(ccc(Cl)c3Cl)N=C2N1 [Anagrelide] | 0 | 0 | 0 | 0 | 0 | 0 | 1.8 | 9.6
CC(C)(C#N)c1cc(Cn2cncn2)cc(C(C)(C)C#N)c1 [Anastrozole] | 0 | 0 | 0 | 0 | 0 | 0 | 0 | 0
CNC(=O)c1ccc(N2C(=S)N(c3cnc(C#N)c(C(F)(F)F)c3)C(=O)C23CCC3)cc1F [Apalutamide] | 0 | 0 | 0 | 0 | 0 | 0 | 0 | 0
N#CC1(c2ccc(NC(=O)c3cccnc3NCc3ccncc3)cc2)CCCC1 [Apatinib] | 0 | 0 | 0 | 0 | 0 | 0.1 | 0 | 0
O=C(Nc1ccc(OC(F)(F)Cl)cc1)c1cnc(N2CC[C@@H](O)C2)c(-c2cc[nH]n2)c1 [Asciminib] | 0.3 | 0 | 0 | 0 | 0 | 0.6 | 0.1 | 0
CC(C)c1c(C(=O)Nc2ccccc2)c(-c2ccccc2)c(-c2ccc(F)cc2)n1CC[C@@H](O)C[C@@H](O)CC(=O)O [Atorvastatin] | 4.4 | 1.1 | 0 | 7.6 | 1 | 0 | 1.5 | 5.8

Structure (SMILES) | drug sensitivity score [1] | drug sensitivity score [2] | drug sensitivity score [3] | drug sensitivity score [4] | drug sensitivity score [5] | drug sensitivity score [6] | drug sensitivity score [7] | drug sensitivity score [8]
CC(=O)OC[C@H]1O[C@@H]([S-])[C@H](OC(C)=O)[C@@H](OC(C)=O)[C@@H]1OC(C)=O.CCP(CC)CC.[Au+] [Auranofin] | 5.6 | 3.7 | 2.6 | 9.5 | 3.2 | 0.5 | 9 | 12.4
CNC(=O)c1ccccc1Sc1ccc2c(/C=C/c3ccccn3)n[nH]c2c1 [Axitinib] | 0.1 | 0 | 0 | 4.6 | 0.1 | 2.1 | 2.6 | 0.1
Nc1ncn([C@@H]2O[C@H](CO)[C@@H](O)[C@H]2O)c(=O)n1 [Azacitidine] | 0.1 | 1.6 | 4.7 | 4.2 | 0.4 | 3.1 | 8.6 | 2.6
Cc1cc(-c2nc(-c3ccc(OC(F)(F)F)cc3)no2)nn1Cc1ccnc(N2CCN(C3CC3)CC2)c1 [BAY 87-2243] | 25.9 | 0 | 0 | 5.5 | 1.6 | 0.2 | 6.6 | 12.3
Nc1nc(Nc2ccc3c(c2)CC[C@@H](N2CCCC2)CC3)nn1-c1cc2c(nn1)-c1ccccc1CCC2 [BGB324] | 6.9 | 5.6 | 5.4 | 5.7 | 6.7 | 2.6 | 5 | 3.2
O=C1CCc2c(Oc3ccc4c(c3)[C@@H]3[C@H](O4)[C@H]3c3nc4cc(C(F)(F)F)ccc4[nH]3)ccnc2N1 [BGB-283] | 4.5 | 7.4 | 6.2 | 15.6 | 16.5 | 12.1 | 16.5 | 4
CC[C@@H]1C(=O)N(C)c2cnc(Nc3ccc(C(=O)NC4CCN(C)CC4)cc3OC)nc2N1C1CCCC1 [BI 2536] | 18 | 10.5 | 6.7 | 19.6 | 3.5 | 1.7 | 4.3 | 19.7
COc1c(C)cnc(Cn2cnc3c(Cl)nc(N)nc32)c1C [BIIB021] | 8.7 | 10.9 | 7.8 | 17.5 | 8.9 | 11.6 | 15.5 | 13.2
CC1(C)C(C(=O)Nc2ccc(S(=O)(=O)c3ccc(NC(=O)C4C(C)(C)C4(C)C)cc3)cc2)C1(C)C [BRD7116] | 0 | 0 | 0 | 0 | 0 | 2.1 | 0.6 | 0.1
O=C(Nc1cccc(Nc2ncc(Br)c(NCCc3cnc[nH]3)n2)c1)N1CCCC1 [BX-912] | 1.9 | 0 | 0.5 | 8.2 | 1.9 | 5.9 | 0.9 | 5.6
Cc1ccc(NC(=O)c2ccc(CN3CC[C@H](N(C)C)C3)c(C(F)(F)F)c2)cc1Nc1nccc(-c2cncnc2)n1 [Bafetinib] | 0 | 0 | 0 | 2.9 | 1.3 | 2.3 | 1.7 | 0
CCS(=O)(=O)N1CC(CC#N)(n2cc(-c3ncnc4[nH]ccc34)cn2)C1 [Baricitinib] | 0 | 0 | 0 | 0 | 0 | 0 | 0 | 0
O=C(/C=C/c1cccc(S(=O)(=O)Nc2ccccc2)c1)NO [Belinostat] | 5.7 | 13.6 | 13.9 | 17.7 | 10.6 | 9.4 | 12.5 | 7.9
N#CC(c1ccnc(OCc2ccc(CN3CCOCC3)cc2)n1)c1nc2ccccc2s1 (stereo not given) [Bentamapimod] | 0.1 | 0 | 2.8 | 1.1 | 0.8 | 3.9 | 5.9 | 1.4
C=C(c1ccc(C(=O)O)cc1)c1cc2c(cc1C)C(C)(C)CCC2(C)C [Bexarotene] | 0 | 0 | 0.4 | 0 | 2.3 | 1.3 | 2.9 | 0
CC(O)(CS(=O)(=O)c1ccc(F)cc1)C(=O)Nc1ccc(C#N)c(C(F)(F)F)c1 (stereo not given) [Bicalutamide] | 0.8 | 0 | 0 | 0 | 0.1 | 0 | 1.7 | 0
CCNC(=O)CCC/C=C\C[C@@H]1[C@@H](/C=C/[C@@H](O)CCc2ccccc2)[C@H](O)C[C@@H]1O [Bimatoprost] | 0 | 0 | 0 | 0 | 0 | 0 | 0 | 0
Cc1sc2c(c1C)C(c1ccc(Cl)cc1)=N[C@@H](CC(=O)Nc1ccc(O)cc1)c1nnc(C)n1-2 [Birabresib] | 0 | 0 | 6.7 | 12.1 | 2.9 | 6.2 | 7.6 | 4.5
CC[C@H](NC(=O)[C@H](C)NC)C(=O)N1C[C@@H](O)C[C@H]1Cc1c(-c2[nH]c3cc(F)ccc3c2C[C@@H]2C[C@H](O)CN2C(=O)[C@H](CC)NC(=O)[C@H](C)NC)[nH]c2cc(F)ccc12 [Birinapant] | 0 | 3.9 | 3 | 0 | 0 | 8 | 1.4 | 0
Cc1c(N)nc([C@H](CC(N)=O)NC[C@H](N)C(N)=O)nc1C(=O)N[C@H](C(=O)N[C@H](C)[C@@H](O)[C@H](C)C(=O)N[C@H](C(=O)NCCc1nc(-c2nc(C(=O)NCCC[S+](C)C)cs2)cs1)[C@@H](C)O)[C@@H](OC1OC(CO)C(O)C(O)C1OC1OC(CO)C(O)C(OC(N)=O)C1O)c1cnc[nH]1 (stereo not given in full) [Bleomycin] | 0 | 0 | 2.1 | 9.4 | 1.8 | 2.4 | 5 | 0.9
